From US20050049273A1, “Acridone derivatives as anti-herpesvirus agents” (priority 2003, published 2005)

How the values were obtained:
[1] = test system: Epstein-Barr Virus (EBV) early antigen; conditions: published work; cited from earlier work
[2] = test system: HSV-1; experiment: HSV-1 viral yield-reduction assay in Vero cells; assay type: cell-based, HSV-1 (KOS); conditions: Human alphaherpesvirus 1, Vero, read-out: ED50 HSV-1
Method: (§1) Three types of antiviral assay were used for HSV studies. For plaque-elimination, Vero cells (70000 per cm^2) were infected with 50-100 PFU for 30 minutes with occasional agitation. The inoculate was replaced with medium containing 1% (v/v) fetal calf serum and supplemented with test agents as indicated (see below). After two days of culture, cells were processed using crystal violet staining and plaques were scored by visual examination (FIG. 3). For examination of anti-HSV activity in parallel cultures during biochemical experiments, the progeny virus obtained from cells and from the culture medium at 23 hours post-infection was determined by limiting dilution on Vero cells (FIG. 5A). Macroscopic viral plaques were scored after two days of incubation in medium containing 1% (w/v) carboxymethylcellulose and 0.5% (v/v) fetal calf serum. For ED50 measurements, the concentration of compound that reduced a single-cycle of viral yield by 50% relative to the control and under the specified condition was interpolated from dose-response graphs (FIG. 4, Table 1). Over the course of ten independent experiments, the mean cell-associated viral yield was 180 PFU per cell (SD=80) and 10 PFU per cell (SD=5) for HSV-1 and HSV-2 respectively. The percent viral release (into the culture medium) was 16 (SD=7) and 0.9 (SD=0.6) for HSV-1 and HSV-2 respectively. These virologic parameters were independent of viral load and serum concentration.

[3] = test system: HSV-2; experiment: HSV-2 viral yield-reduction assay in Vero cells; assay type: cell-based, HSV-2 (strain 186); conditions: Human alphaherpesvirus 2, Vero, read-out: ED50 HSV-2
Method: as §1

[4] = test system: HCMV; experiment: HCMV plaque-elimination assay in HEL cells; assay type: cell-based, HCMV (Towne)
Method: Virus and cell growth inhibition assays. Established virus culture techniques were used (E.-S. Huang, and T Kowalnick, Diagnosis of human cytomegalovirus infection: laboratory approaches, in Molecular Aspects of Human Cytomegalovirus Diseases (Becker,Y., Daria, G., and Huang, E.-S. eds.), Springer-Verlag, Berlin, pp. 225-255 (1993); Akanitapichat et al., Antiviral Research 45: 123-134 (2000)) but with the following modifications. For the HCMV plaque-elimination assay, HEL cells were plated in standard medium at 60,000 per cm^2 and infected the following day with 50-100 PFU HCMV for 90 minutes with occasional agitation. The inoculate was replaced with maintenance medium containing 5% (v/v) fetal calf serum and test agents as indicated (see below). After an additional 6-10 days of culture, cells were fixed with formal saline (10% formalin in phosphate-buffered saline; PBS), stained with 0.1% (w/v) toluidine blue in PBS and plaques were scored using an inverted light microscope at 40x magnification (FIGS. 2A and 3). For ED50 determination, the value was interpolated from dose-response data and is the concentration of compound that reduced plaque formation by 50% relative to control under the specified condition.

[5] = Vero cell growth inhibition (Sulforhodamine B protein-dye binding); assay type: cell-based, African green monkey; conditions: African green monkey; cell growth inhibition, two days of continuous treatment; read-out: CC50 Vero
Method: (§2) The effect of compounds on host cell replication (CC50), was measured using Sulforhodamine B-staining and the spectrophotometric method originally developed for the NCIs's in vitro anti-cancer drug screening program (P. Skehan et al., J. Natl. Cancer. Inst. 82, 1107-1112 (1990)). The CC50 value is the concentration of compound that inhibited actively replicating cells by 50% of control respectively after two days of continuous treatment.

[6] = test system: Vero; experiment: as above; assay type: cell-based, African green monkey
Method: as §2

[7] = HEL cell growth inhibition (Sulforhodamine B protein-dye binding); assay type: cell-based, human; conditions: human; cell growth inhibition, two days of continuous treatment
Method: as §2

[8] = test system: HEL; experiment: as above; assay type: cell-based, human; conditions: at 50 μM
Method: as §2

[9] = test system: HSV-2; experiment: HSV-2 plaque-elimination assay in Vero cells; assay type: cell-based, HSV-2 (strain 186); conditions: 100 μM, data not shown
Method: as §1

[10] = test system: HCMV; experiment: HCMV cytopathogenicity (CPE) reduction assay in HEL cells; assay type: cell-based, HCMV (Towne)
Text: (§3) To examine whether pre-treatment of cells influenced anti-HCMV activity of 1-hydroxy-3,7-dimethoxyacridone (2), a cytopathogenicity (CPE) reduction assay was used. The protocol was like the plaque-elimination assay except HEL cells were replicated in test compound (3-12 days or from 1-4 passages) prior to infection, cultures were infected with 500-1000 PFU HCMV and after five days, cells were stained with 0.8% (w/v) crystal violet in 50% ethanol in order to achieve contrast for photography.

[11] = test system: an assortment of human tumor cell lines; experiment: Replication of human tumor cell lines; assay type: cell-based; conditions: at 50 μM, data not shown
Method: as §2

[12] = test system: HEL Cells; experiment: HEL cells replicated in presence of compound for 12 days (morphology, replication rate); assay type: cell-based, human; conditions: 0.5 or five micromolar for 12 days (four passages)
Text: HEL Cells were replicated in the presence of either 0.5 or five micromolar compound 2 for 12 days (four passages) then they were compared to untreated HEL cells as a host for HCMV replication in the presence or absence of the drug. […] Cultures were infected with ten-times the viral load used for plaque assay and were fixed, stained and photographed after seven days of infection (panel B). A detailed method is described in the examples below. The horizontal rows labeled as HEL, HEL (0.5) and HEL (5.0) represent cells cultured in the absence or presence of 0.5 and 5 micromolar 2 respectively. Labeled columns indicate mock-infected (M), infected (I) and treated after viral infection with the same two concentrations of the compound.
as §3

Molecule	concentration blocking activation of EBV early antigen [1]	EC50 [2] [µM]	EC50 [3] [µM]	EC50 ([4]; Human betaherpesvirus 5, HEL, read-out: ED50 HCMV) [µM]	selectivity as anti-HCMV agent ([4]; cell replication vs HCMV ED50)	CC50 at 2 days [5] [µM]	inhibition of Vero cell replication ([6]; at 50 μM)	percent inhibition observed at the highest concentration tested, Vero growth ([6]; number in parenthesis, highest concentration tested) [%]	CC50 at 2 days [7] [µM]	inhibition of HEL cell replication [8]	effect on HSV at highest concentration tested [9]	amelioration of HCMV cytopathogenicity after pre-treatment ([10]; HEL cells cultured 12 days in 0.5 μM before infection)	protective effect against HCMV cytopathogenicity after pre-treatment ([10]; HEL cells cultured 12 days in 5 μM before infection)	protection against HCMV cytopathogenicity ([10]; higher viral loads, with or without pretreatment of HEL cells)	inhibition of human tumor cell line replication [11]	effect on cell morphology and cell viability [12]
5-hydroxynoracronicine	submicromolar concentration															
COc1cc(O)c2c(=O)c3cc(OC)ccc3[nH]c2c1 [Compound 2, 3,7-dimethoxy-1-hydroxy-acridone]		> 50	> 50	1.4	greater than 35 fold	> 50	inactive	7	> 50	inactive	without effect on HSV	some amelioration of HCMV cytopathogenicity	even apparent in the absence of sustained treatment post-infection	did not protect against HCMV cytopathogenicity unless HEL cells were pretreated prior to viral infection	inactive	no effect on cell morphology or cell viability
